# Where two headings read alike, the source gives them in different places.
# Target: T1, hmGluR1 receptor (Homo sapiens, UniProt Q13255)
# T1 construct: expressed in transfected cells; host or cells: CHO
# Assay: IC50 Determination: intracellular calcium mobilization (FLIPR) in a CHO cell line stably expressing hmGluR1 receptor, against Quisqualate
# Assay type: cell-based
# Conditions: CHO cells expressing hmGluR1, against Quisqualate 1 μM (EC80), compounds added 10 minutes before agonist
# Description: A CHO cell line stably expressing hmGluR1 receptor was established. One day prior to assay, cells were split in growth media at concentration of 50,000 cells/well in a volume of 100 μl and seeded into black clear-bottom 96-well plates. After two to six hours, when cells were well attached to the plate, growth medium was replaced with assay medium (100 μL) consisting of DMEM high glucose, supplemented with GPT (1 U/mL) and sodium pyruvate, 1 mM. Following overnight incubation, medium was discarded and cells were loaded for 2 hours with dye from the Calcium 3 Assay Reagent Kit (Molecular Devices, # R8033), prepared according to manufacturers' instructions. A 96-tip pipettor/fluorometric imaging plate reader (FLIPR 384; Molecular Devices) was used and intracellular calcium mobilization was measured by increases in fluorescence upon agonist Quisqualate stimulation following 6 sec-baseline measurement. Test compounds were added 10 minutes before Quisqualate. IC50 determinations for tested compounds were generated against Quisqualate 1 μM corresponding to EC80 value in a standard dose response curve.
# T1 sequence (Q13255 19-1194): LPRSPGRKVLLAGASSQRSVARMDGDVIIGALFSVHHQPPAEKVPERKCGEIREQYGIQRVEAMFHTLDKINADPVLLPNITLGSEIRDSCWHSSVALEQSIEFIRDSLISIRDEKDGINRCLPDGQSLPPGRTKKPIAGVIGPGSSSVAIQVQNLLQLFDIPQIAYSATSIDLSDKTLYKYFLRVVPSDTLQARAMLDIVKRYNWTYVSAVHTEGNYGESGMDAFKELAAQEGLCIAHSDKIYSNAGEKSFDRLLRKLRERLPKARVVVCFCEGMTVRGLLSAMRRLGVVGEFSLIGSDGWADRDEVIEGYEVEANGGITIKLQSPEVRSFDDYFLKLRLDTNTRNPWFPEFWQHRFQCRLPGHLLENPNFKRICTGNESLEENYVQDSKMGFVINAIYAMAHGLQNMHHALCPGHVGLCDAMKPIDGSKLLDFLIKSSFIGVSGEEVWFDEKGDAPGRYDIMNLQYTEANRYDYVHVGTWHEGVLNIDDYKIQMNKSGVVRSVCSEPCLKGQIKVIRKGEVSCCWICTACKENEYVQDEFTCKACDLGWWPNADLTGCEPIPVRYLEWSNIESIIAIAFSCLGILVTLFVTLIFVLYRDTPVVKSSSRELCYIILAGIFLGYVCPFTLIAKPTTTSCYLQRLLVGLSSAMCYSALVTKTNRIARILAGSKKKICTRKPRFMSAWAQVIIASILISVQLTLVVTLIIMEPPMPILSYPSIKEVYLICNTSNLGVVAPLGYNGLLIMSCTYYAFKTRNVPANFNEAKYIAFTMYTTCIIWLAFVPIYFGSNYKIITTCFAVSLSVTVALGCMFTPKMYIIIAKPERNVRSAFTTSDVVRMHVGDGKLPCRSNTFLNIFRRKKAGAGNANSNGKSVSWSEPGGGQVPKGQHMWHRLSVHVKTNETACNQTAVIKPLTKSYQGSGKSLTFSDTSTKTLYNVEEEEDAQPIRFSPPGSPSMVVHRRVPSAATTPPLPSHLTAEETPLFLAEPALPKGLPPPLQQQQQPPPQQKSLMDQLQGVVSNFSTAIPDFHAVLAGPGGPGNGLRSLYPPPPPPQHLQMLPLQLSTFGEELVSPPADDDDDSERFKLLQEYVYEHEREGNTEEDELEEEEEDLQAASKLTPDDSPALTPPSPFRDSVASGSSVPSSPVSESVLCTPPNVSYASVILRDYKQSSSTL
Structure (SMILES),IC50 (read-out: mGluR1 IC50 rating) [nM],IC50 (read-out: mGluR1 IC50) [nM]
Cc1ccc(-n2cnc3c(sc4ncc5c(c43)OCC5)c2=O)cc1 [Compound 24],100 to 1000,
Cc1ccc(-n2cnc3c(sc4ncc5sc(=S)[nH]c5c43)c2=O)cc1 [Compound 28],100 to 1000,
Cc1ccc(-n2cnc3c(sc4ncc(Br)c(N(C)CCO)c43)c2=O)cc1 [Compound 37f],100 to 1000,
C[C@H]1CNc2c(cnc3sc4c(=O)n(-c5ccc(Cl)cc5)cnc4c23)O1 [Compound 38c],< 20,2.2
Cc1ccc(-n2cnc3c(sc4ncc5c(c43)N(C)CCO5)c2=O)cc1 [Compound 38f],< 20,5.7
COc1ccc(-n2cnc3c(sc4ncc5c(c43)NCCO5)c2=O)cc1 [Compound 38i],< 20,2.5
C[C@@H](O)CNc1c(Br)cnc2sc3c(=O)n(-c4ccc(Cl)cc4)cnc3c12 [Compound 37b],> 1000,
O=c1c2sc3ncc4nc[nH]c4c3c2ncn1-c1ccc(Cl)cc1 [Compound 35],< 20,6
O=c1c2sc3ncc4cc[nH]c4c3c2ncn1-c1ccc(Cl)cc1 [Compound 34],< 20,0.4
O=c1c2sc3ncc4c(c3c2ncn1-c1ccc(Cl)cc1)NCCO4 [Compound 38a],< 20,2.9
O=c1c2sc3ncc4nc[nH]c4c3c2ncn1C1CCCCC1 [Compound 12],20 to 100,23
C[C@H](O)CNc1c(Br)cnc2sc3c(=O)n(-c4ccc(Cl)cc4)cnc3c12 [Compound 37c],> 1000,
Cc1ccc(-n2cnc3c(sc4ncc5cc[nH]c5c43)c2=O)cc1 [Compound 27a],< 20,0.7
C[C@H]1COc2cnc3sc4c(=O)n(-c5ccc(Cl)cc5)cnc4c3c2N1 [Compound 38e],< 20,12
Cn1ccc2cnc3sc4c(=O)n(C5CCCCC5)cnc4c3c21 [Compound 6],20 to 100,
C[C@@H]1COc2cnc3sc4c(=O)n(-c5ccc(Cl)cc5)cnc4c3c2N1 [Compound 38d],20 to 100,

Structure (SMILES),IC50 (read-out: mGluR1 IC50 rating) [nM],IC50 (read-out: mGluR1 IC50) [nM]
C[C@@H](CO)Nc1c(Br)cnc2sc3c(=O)n(-c4ccc(Cl)cc4)cnc3c12 [Compound 37e],> 1000,
O=c1c2sc3ncc4nn[nH]c4c3c2ncn1C1CCCCC1 [Compound 13],100 to 1000,
Cc1ccc(-n2cnc3c(sc4ncc5c(c43)NCCO5)c2=O)cc1 [Compound 38h],< 20,2.2
Cn1cnc2cnc3sc4c(=O)n(C5CCCCC5)cnc4c3c21 [Compound 9],20 to 100,
C[C@@H]1CNc2c(cnc3sc4c(=O)n(-c5ccc(Cl)cc5)cnc4c23)O1 [Compound 38b],< 20,1.4
Cc1ccc(-n2cnc3c(sc4ncc5c(c43)NC[C@@H](C)O5)c2=O)cc1 [Compound 38g],< 20,5.3
CSc1nc2c(cnc3sc4c(=O)n(-c5ccc(C)cc5)cnc4c32)s1 [Compound 29],100 to 1000,
Cc1ccc(-n2cnc3c(sc4ncc5sc(=O)[nH]c5c43)c2=O)cc1 [Compound 30],100 to 1000,
Cc1ccc(-n2cnc3c(sc4ncc5ccn(C)c5c43)c2=O)cc1 [Compound 31],20 to 100,
Cc1ccc(-n2cnc3c(sc4ncc5cn[nH]c5c43)c2=O)cc1 [Compound 20b],< 20,17
COc1ccc(-n2cnc3c(sc4ncc5cc[nH]c5c43)c2=O)cc1 [Compound 27b],< 20,4.9
C[C@H](CO)Nc1c(Br)cnc2sc3c(=O)n(-c4ccc(Cl)cc4)cnc3c12 [Compound 37d],> 1000,
Cn1cnc2cnc3sc4c(=O)n(-c5ccc(Cl)cc5)cnc4c3c21 [Compound 36],< 20,9.8
Cn1ncc2cnc3sc4c(=O)n(C5CCCCC5)cnc4c3c21 [Compound 4],100 to 1000,
O=c1c2sc3ncc4cn[nH]c4c3c2ncn1-c1ccc(Cl)cc1 [Compound 20a],20 to 100,38
O=c1c2sc3ncc(Br)c(NCCO)c3c2ncn1-c1ccc(Cl)cc1 [Compound 37a],< 20,14.2

# — US7482360B2, “Fused tetracyclic mGluR1 antagonists as therapeutic agents” (Schering Corporation, priority 2005, dated 2009)
